Structures are written as SMILES.

By melting point is commonly meant the temperature of the solid-liquid transition. `O=c1cnc2c(NCCO)nc(SCc3cccc(C(F)(F)F)c3F)nc2[nH]1` [Example 32, 2-[[(2-Fluoro-3-(trifluoromethyl)phenyl)methyl]thio]-4-[(2-hydroxyethyl)amino]-7(8H)-pteridinone]: the melting point is 221 to 222 °C.
To `O=c1cnc2c(NC(CO)CO)nc(SCc3cccc(C(F)(F)F)c3F)nc2[nH]1` [Example 31, 2-[[(2-Fluoro-3-(trifluoromethyl)phenyl)methyl]thio]-4-[[2-hydroxy-1-(hydroxymethyl)ethyl]amino]-7(8H)-pteridinone] belongs 244 to 245 °C.
To `O=c1cnc2c(NC(CO)CO)nc(SCc3cccs3)nc2[nH]1` [Example 28, 4-[[-2-Hydroxy-1-(hydroxymethyl)ethyl]amino]-2-[(2-thienylmethyl)thio]-7(8H)-pteridinone] belongs 220 to 223 °C; to `O=c1cnc2c(NCCO)nc(SCc3cccc(Cl)c3F)nc2[nH]1` [Example 7, 2-[[(3-Chloro-2-fluorophenyl)methyl]thio]-4-[(2-hydroxyethyl)amino]-7(8H)-pteridinone], 195 to 196.5 °C; to `C[C@H](CO)Nc1nc(SCc2cccc(C(F)(F)F)c2F)nc2[nH]c(=O)cnc12` [Example 30, 2-[[(2-Fluoro-3-(trifluoromethyl)phenyl)methyl]thio]-4-[[(1R)-2-hydroxy-1-methylethyl]amino]-7(8H)-pteridinone], 217 to 219 °C.
To `C[C@H](CO)Nc1nc(SCc2ccccc2F)nc2[nH]c(=O)cnc12` [Example 25, 2-[[(2-Fluorophenyl)methyl]thio]-4-[[(1R)-2-hydroxy-1-methylethyl]amino]-7(8H)-pteridinone] belongs 203 to 205 °C.
For the molecule `COc1ccc(CSc2nc(NC(CO)CO)c3ncc(=O)[nH]c3n2)cc1Cl` [Example 11, 2-[[(3-Chloro-4-methoxyphenyl)methyl]thio]-4-[[2-hydroxy-1-(hydroxymethyl)ethyl]amino]-7(8H)-pteridinone], the melting point lay within 209 to 211 °C.
To `C[C@H](CO)Nc1nc(SCc2ccno2)nc2[nH]c(=O)cnc12` [Example 22, 4-[[(1R)-2-Hydroxy-1-methylethyl]amino]-2-[(5-isoxazolylmethyl)thio]-7(8H)-pteridinone] belongs 191 to 194 °C.
To `C[C@H](CO)Nc1nc(SCc2cccs2)nc2[nH]c(=O)cnc12` [Example 26, 4-[[(1R)-2-Hydroxy-1-methylethyl]amino]-2-[[(2-thienyl)methyl)thio]-7(8H)-pteridinone] belongs 209 to 212 °C; to `O=c1cnc2c(NC(CO)CO)nc(SCc3cccc(Cl)c3F)nc2[nH]1` [Example 8, 2-[[(3-Chloro-2-fluorophenyl)methyl]thio]-4-[[2-hydroxy-1-(hydroxymethyl)ethyl]amino]-7(8H)-pteridinone], 218.5 to 220.5 °C; to `C[C@H](CO)Nc1nc(SCc2cccc(Cl)c2F)nc2[nH]c(=O)cnc12` [Example 6, 2-[[(3-Chloro-2-fluorophenyl)methyl]thio]-4-[[(1R)-2-hydroxy-1-methylethyl]amino]-7(8H)-pteridinone], 209 to 211 °C.
For the molecule `Cc1ccc(CSc2nc(N[C@H](C)CO)c3ncc(=O)[nH]c3n2)o1` [Example 24, 4-[[(1R)-2-Hydroxy-1-methylethyl]amino]-2-[[(5-methyl-2-furanyl)methyl]thio]-7(8H)-pteridinone], the melting point fell in the range of 197 to 199 °C.

The record behind these values is patent US7579342B2, “Pteridine compounds for the treatment of psoriasis” (AstraZeneca, priority 2000, dated 2009).
